The record followed here is patent US20250376498A1, “FUSION PROTEINS COMPRISING AN IMPROVED GLP-1 RECEPTOR AGONIST AND USES THEREOF” (Guangzhou Innogen Pharmaceutical Group Co., Ltd., priority 2022, published 2025).

Assay [1] concerns SH-SY5Y neuronal cells. As to the kind of experiment: TNF-α-induced decrease in SH-SY5Y cell viability (CCK-8). The class given is cell-based. Particulars: 60 ng/ml TNF-α, 48 hours; YN-011 10, 100, 500 nM; GABA 100 μM. Here is the method:
SH-SY5Y neuronal cells were digested using 0.25% trypsin to prepare a single-cell suspension. The single-cell suspension was seeded in a 96-well plate at a density of 10,000 cells per well in 100 μl of medium. The plate was placed in a CO2 incubator overnight (37° C., 5% CO2) to allow cell adhesion. The medium was replaced with medium containing 10% FBS or 5% FBS, and cells were stimulated with 20, 40, 60, 80, or 100 ng/ml TNF-α for 48 hours. Each drug treatment was performed in six replicate wells. After 48 hours of drug treatment, 10 μl of CCK-8 solution was added to each well, and the plate was gently shaken to mix the reagents. The plate was then incubated in a CO2 incubator for 1-4 hours. The absorbance at 450 nm was measured using a microplate reader, and cell viability was calculated using the following formula:
[formula] • A (treated): OD value of wells containing cells, CCK-8 solution, and drug solution • A (control): OD value of wells containing cells and CCK-8 solution without drug solution • A (blank): OD value of wells without cells
Please refer to section 8.1 for the experimental procedure, but the drug treatment in this experiment is different from section 8.1. […]

The test system of assay [2] is SH-SY5Y neuronal cells. As to the kind of experiment: TNF-α-induced apoptosis in SH-SY5Y cells (western blot Bcl-2, cleaved-caspase3). Conditions: 60 ng/ml TNF-α, 48 hours; YN-011 10, 100, 500 nM; GABA 1, 10, 100 μM; combination 100 μM GABA + 100 nM YN-011. The class given is cell-based. Here is the method: The experimental procedure is as follows: • 1) Digest SH-SY5Y neuronal cells in a 10 cm culture dish using 0.25% trypsin and seed them into a 12-well plate. • 2) Place the culture plate in a CO2 incubator for overnight pre-culture (37° C., 5% CO2) to allow cell adhesion. • 3) Using medium containing 5% FBS, treat the cells in each well with 60 ng/ml TNF-α alone or co-treated with 10, 100, or 500 nM YN-011. Incubate the cells at 37° C. for 48 hours. Each drug treatment is performed in three replicate wells. • 4) After 48 hours, discard the supernatant, gently wash the cells once with PBS, and place the cell culture plate on ice. Add 120 μl of RIPA cell lysis buffer (Beyotime P0013B) to each well, including protease and phosphatase inhibitors, and lyse the cells for 15 minutes. • 5) Transfer the cell lysate to a 1.5 ml EP tube and centrifuge at 14,000 rpm for 30 minutes. • 6) Carefully aspirate the supernatant into a new EP tube, add 5× loading buffer containing β-mercaptoethanol, and boil the samples at 100° C. for 10 minutes to denature the proteins. • 7) Perform SDS-PAGE gel electrophoresis with 10 μg of protein loaded per lane. Position the gel vertically against the power rack in the electrophoresis tank, ensuring that the concave side of the gel faces the power rack. Two gels can share one power rack. Fix the gel and power rack in the electrophoresis tank as required. […]
A general note: In western blotting, separated proteins are transferred to a membrane and probed.

“Also recorded” adds a separate entry of the source.

Take `NCCCC(=O)O` [GABA, γ-aminobutyric acid]: the SH-SY5Y cell viability result with SH-SY5Y neuronal cells [1] is “significantly enhanced cell viability; also recorded: inhibiting TNF-α-induced reduction in SH-SY5Y cell viability”. Also, the “TNF-α-induced apoptosis in SH-SY5Y neuronal cells (western blot)” value with SH-SY5Y neuronal cells [2] was “reduces TNF-α-induced apoptosis; also recorded: reduction of TNF-α-induced apoptosis”.

B1: YN-011: GLP-1 fusion protein of SEQ ID NO: 7: GLP-1 (A8G, G22E, R36G), linker peptide and IgG2/Fc domain (C222S, A330S, P331S) (protein)
chain: HGEGTFTSDVSSYLEEQAAKEFIAWLVKGGGSSGAPPPSGGGGSERKSCVECPPCPAPPVAGPSVFLFPPKPKDTLMISRTPEVTCVVVDVSHEDPEVQFNWYVDGVEVHNAKTKPREEQFNSTFRVVSVLTVVHQDWLNGKEYKCKVSNKGLPSSIEKTISKTKGQPREPQVYTLPPSREEMTKNQVSLTCLVKGFYPSDIAVEWESNGQPENNYKTTPPMLDSDGSFFLYSKLTVDKSRWQQGNVFSCSVMHEALHNHYTQKSLSLSPG
On to B1, for which the SH-SY5Y cell viability entry in the assay with SH-SY5Y neuronal cells [1] was “significantly enhanced cell viability; also recorded: inhibiting TNF-α-induced reduction in SH-SY5Y cell viability”. Further, in the assay on SH-SY5Y neuronal cells [2], the “TNF-α-induced apoptosis in SH-SY5Y neuronal cells (western blot)” value is reported as “significantly reduces TNF-α-induced apoptosis; also recorded: reduction of TNF-α-induced apoptosis”.
